SMILES strings stand for the structures. Activity calls are given as the source filed them. For most assays here, no stated cut-off is given here; in the data, actives have a measured EC50 and inactives only a lower limit.

Assay [1] has as its system H9c2. The assay is described as follows: cells. Type of assay: functional, cell-based. To be noted: Rattus norvegicus, H9c2, Myocardium.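 Further: confirmatory concentration-response retest of ultra-high-throughput screening hits for modulation of myocardial damage; cell death induced by hydrogen peroxide oxidative stress; compound pretreatment for 60 min then peroxide exposure for 2 h; potency is for protecting the cells against peroxide damage rather than for killing them.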
Assay [2] has as its target Large T antigen (Simian virus 40, UniProt P03070). Type of assay: functional, Betapolyomavirus macacae.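 Further: Confirmatory-stage PubChem screen for compounds that inhibit SV40 T antigen.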
Assay [3] has as its system Streptococcus sp. 'group A'. The assay is described as follows: Streptococcus pyogenes SK(-)GAS viability under kanamycin – luminescence, BacTiterGlo, confirmation, counter-screen for streptokinase expression inhibitor project, dose response (AID 1900). It counts as functional, organism-based. (In general: Counterscreens check selectivity or assay interference.)
The target in assay [4] is T1, Streptokinase A (Streptococcus pyogenes serotype M1, UniProt P10520).
T1 sequence (P10520 whole entry): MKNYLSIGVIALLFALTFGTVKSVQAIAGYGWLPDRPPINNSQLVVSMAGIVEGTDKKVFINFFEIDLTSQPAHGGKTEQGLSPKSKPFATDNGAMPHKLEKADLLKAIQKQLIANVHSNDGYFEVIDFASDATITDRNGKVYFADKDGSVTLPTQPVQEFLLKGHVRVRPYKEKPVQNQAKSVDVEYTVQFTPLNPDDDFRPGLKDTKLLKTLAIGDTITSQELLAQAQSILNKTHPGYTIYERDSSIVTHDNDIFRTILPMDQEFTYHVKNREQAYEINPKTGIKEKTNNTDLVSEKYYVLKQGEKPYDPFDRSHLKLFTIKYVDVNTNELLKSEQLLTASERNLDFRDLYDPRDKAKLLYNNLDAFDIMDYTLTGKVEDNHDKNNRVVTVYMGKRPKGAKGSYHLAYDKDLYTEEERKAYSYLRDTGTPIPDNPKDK
The assay is described as follows: viability-normalized secreted streptokinase activity reduction – plasminogen activation absorbance, OD405, dose response (AID 1914).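 Further: secreted streptokinase activity via plasminogen activation per viability signal from cell pellet.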 It counts as functional, Streptococcus pyogenes M1 GAS.

For assay [5], the system named is Streptococcus. The assay can be described thus: GAS UMAA2166 growth inhibition – luminescence, BacTiterGlo, counter-screen for streptokinase expression inhibitor project, dose response (AID 1915).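 Further: potency for reduction of bacterial viability or growth.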 Type of assay: functional, organism-based.
The target of assay [6] is T2, Corticotropin-releasing factor receptor 2/Corticotropin-releasing factor-binding protein (Homo sapiens, UniProt P24387+Q13324).
T2 sequence (Q13324 whole entry): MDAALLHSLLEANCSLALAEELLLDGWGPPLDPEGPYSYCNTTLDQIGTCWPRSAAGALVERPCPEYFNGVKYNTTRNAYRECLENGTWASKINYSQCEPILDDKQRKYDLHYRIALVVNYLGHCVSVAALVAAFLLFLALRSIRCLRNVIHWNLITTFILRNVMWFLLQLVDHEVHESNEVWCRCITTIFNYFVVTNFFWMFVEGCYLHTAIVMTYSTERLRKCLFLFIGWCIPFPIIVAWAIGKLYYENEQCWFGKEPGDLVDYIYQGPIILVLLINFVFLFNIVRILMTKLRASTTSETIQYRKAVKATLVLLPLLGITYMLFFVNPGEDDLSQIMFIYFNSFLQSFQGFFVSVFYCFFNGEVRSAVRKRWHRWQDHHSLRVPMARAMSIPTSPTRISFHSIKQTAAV
T2 sequence (P24387 whole entry): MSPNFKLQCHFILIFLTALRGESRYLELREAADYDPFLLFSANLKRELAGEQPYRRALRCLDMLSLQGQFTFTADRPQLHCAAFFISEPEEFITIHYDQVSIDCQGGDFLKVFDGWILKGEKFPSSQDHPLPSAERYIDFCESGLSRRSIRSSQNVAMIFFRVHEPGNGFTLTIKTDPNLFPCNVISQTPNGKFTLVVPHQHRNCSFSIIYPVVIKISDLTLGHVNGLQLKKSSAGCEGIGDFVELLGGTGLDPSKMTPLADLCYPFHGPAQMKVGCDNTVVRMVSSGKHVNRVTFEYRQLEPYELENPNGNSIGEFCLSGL
The assay is described as follows: activators of CRF receptor 2 with binding protein – uHTS hits, confirmation (AID 602473). To be noted: read-out: EC50_Mean. Type of assay: functional.

The target in assay [7] is T3, Replicative DNA helicase DnaB (Mycobacterium tuberculosis, UniProt P9WMR3).
T3 sequence (P9WMR3 whole entry): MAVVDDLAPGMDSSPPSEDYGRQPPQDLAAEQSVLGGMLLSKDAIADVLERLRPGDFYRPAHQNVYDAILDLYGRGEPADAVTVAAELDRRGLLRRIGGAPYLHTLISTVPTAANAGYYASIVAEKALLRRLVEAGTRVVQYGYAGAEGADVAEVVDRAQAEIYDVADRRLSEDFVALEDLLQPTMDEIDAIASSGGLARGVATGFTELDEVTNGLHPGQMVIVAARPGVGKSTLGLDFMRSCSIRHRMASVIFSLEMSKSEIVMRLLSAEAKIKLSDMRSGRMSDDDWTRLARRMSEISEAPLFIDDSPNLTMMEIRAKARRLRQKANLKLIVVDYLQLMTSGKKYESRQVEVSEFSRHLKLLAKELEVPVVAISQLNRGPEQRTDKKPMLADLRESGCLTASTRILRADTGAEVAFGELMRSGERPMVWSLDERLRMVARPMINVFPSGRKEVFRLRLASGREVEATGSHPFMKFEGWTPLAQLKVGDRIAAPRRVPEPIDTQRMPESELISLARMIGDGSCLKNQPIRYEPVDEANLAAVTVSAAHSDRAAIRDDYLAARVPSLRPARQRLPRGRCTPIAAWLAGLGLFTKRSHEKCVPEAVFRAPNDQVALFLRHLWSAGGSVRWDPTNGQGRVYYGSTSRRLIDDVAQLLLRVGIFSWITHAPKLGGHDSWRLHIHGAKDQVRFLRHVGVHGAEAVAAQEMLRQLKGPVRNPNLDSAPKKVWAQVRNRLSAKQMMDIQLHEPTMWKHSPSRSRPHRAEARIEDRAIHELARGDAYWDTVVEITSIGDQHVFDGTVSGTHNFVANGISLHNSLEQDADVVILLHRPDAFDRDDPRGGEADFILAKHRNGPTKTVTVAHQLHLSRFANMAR
The assay can be described thus: DnaB intein splicing inhibitors, dose response, biochemical, cell-free fluorescence (AID 449749). Type of assay: functional.

In assay [8] the target is T4, Protein RecA (Mycobacterium tuberculosis, UniProt P9WHJ3).
T4 sequence (P9WHJ3 whole entry): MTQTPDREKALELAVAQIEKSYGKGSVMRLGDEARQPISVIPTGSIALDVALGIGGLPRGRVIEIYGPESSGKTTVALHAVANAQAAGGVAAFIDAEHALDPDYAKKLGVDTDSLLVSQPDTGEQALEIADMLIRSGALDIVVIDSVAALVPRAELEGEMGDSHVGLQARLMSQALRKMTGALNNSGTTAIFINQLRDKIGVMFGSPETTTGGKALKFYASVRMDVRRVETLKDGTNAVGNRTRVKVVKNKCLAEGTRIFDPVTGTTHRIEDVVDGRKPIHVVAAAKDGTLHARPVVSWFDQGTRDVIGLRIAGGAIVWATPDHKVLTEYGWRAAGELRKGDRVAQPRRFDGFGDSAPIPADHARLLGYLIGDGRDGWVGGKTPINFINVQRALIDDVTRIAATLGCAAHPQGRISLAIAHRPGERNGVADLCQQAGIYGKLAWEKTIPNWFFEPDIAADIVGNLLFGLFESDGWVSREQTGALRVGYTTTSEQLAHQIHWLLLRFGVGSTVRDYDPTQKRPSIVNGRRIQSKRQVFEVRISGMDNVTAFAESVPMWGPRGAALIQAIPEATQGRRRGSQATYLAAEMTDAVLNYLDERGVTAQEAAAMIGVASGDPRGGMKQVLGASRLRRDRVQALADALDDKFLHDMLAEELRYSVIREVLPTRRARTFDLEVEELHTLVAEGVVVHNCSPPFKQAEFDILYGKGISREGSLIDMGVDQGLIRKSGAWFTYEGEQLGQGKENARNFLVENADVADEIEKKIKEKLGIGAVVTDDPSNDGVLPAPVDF
The assay can be described thus: Fluorescence Cell-Free Homogeneous Dose Retest to Identify Inhibitors of RecA-Intein Splicing Activity. [Related pubchem assays (depositor defined):AID2097, AID2223, AID489010, AID492950]. Type of assay: functional.

Assay [9] is described as follows: Luminescence Cell-Based Dose Response HTS to Identify Inhibitors of 5'UTR Stem-Loop Driven Prion Protein mRNA Translation in H4 Neuroglioblastoma Cells. [Related pubchem assays: 1827 (Project Summary), 1813 (Primary HTS)]. It counts as functional.
Assay [10] can be described thus: alpha-synuclein stem-loop luciferase translation blockers – H4 neuroglioma cells, luminescence, confirmation (AID 1988). It counts as functional, cell-based.

Large T antigen, sequence (P03070 whole entry): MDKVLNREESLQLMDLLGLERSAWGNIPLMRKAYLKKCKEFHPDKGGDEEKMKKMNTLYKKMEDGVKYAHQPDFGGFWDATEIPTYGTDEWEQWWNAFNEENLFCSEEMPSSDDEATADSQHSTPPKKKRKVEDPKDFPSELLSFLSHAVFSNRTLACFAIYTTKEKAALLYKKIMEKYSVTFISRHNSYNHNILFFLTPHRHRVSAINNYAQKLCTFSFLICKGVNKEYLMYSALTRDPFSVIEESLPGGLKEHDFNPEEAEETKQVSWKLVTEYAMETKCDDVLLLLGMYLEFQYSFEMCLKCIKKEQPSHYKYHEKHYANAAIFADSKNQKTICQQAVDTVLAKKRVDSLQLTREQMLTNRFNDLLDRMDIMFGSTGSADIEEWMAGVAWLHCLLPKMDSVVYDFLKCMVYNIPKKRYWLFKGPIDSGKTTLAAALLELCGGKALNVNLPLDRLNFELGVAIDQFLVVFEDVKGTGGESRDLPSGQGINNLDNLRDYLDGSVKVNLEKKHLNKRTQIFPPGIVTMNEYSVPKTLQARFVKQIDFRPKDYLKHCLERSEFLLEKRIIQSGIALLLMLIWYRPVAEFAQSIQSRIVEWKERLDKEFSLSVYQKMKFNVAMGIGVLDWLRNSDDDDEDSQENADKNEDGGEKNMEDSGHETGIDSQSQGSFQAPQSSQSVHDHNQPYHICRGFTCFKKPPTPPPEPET

On to `O=C(N/N=C/c1cccc(O)c1)c1cc(-c2ccc3c(c2)OCO3)[nH]n1`, for which, in [1], the IC50 (commonly the concentration that gives 50% inhibition) was > 79 µM (inactive).

As to `O=C(NC(=S)N1CCN(c2ccc(O)cc2)CC1)c1cccs1`, the IC50 in [2] was 5.39 µM (active).

As to `CC(=O)Nc1ccc(S(=O)(=O)Nc2nc3ccccc3nc2Nc2ccc(N)cc2)cc1`, the IC50 in [2] is 18.5 µM (active).

For the molecule `CCCN1CCc2c(sc(NC(=O)c3ccc(S(=O)(=O)N4CCN(C(=O)OCC)CC4)cc3)c2C(N)=O)C1`, the EC50 in assay [3] was 51.8 µM (active); in assay [4], > 150 µM (not active); in assay [5] it was > 150 µM (not active); in assay [6], 15.2 µM (active).

Regarding `Cn1c(/C=N/NC(=O)c2ccccc2)nc2ccccc21`, in assay [1], the IC50 was 13.5 µM (active).

`Cc1sc2nc(SCC(=O)NCc3ccco3)nc(O)c2c1C`: in assay [1], the IC50 is > 79 µM (inactive).

In the case of `CCOc1ccc(/C=N/NC(=O)CSc2ccccn2)cc1O`, the IC50 in assay [2] was 17.7 µM (active).

Turning to `C[C@H](CO)N1C[C@H](C)[C@@H](CN(C)C(=O)Nc2ccc3c(c2)OCO3)Oc2c(NC(=O)Nc3ccc(C(F)(F)F)cc3)cccc2C1=O`, the IC50 in assay [1] is 21.3 µM (active).

In the case of `O=C(CCc1nc(O)c2ccccc2n1)NCCN1C(=O)S/C(=C\c2ccc(OC(F)F)cc2)C1=O`, the IC50 in assay [1] was > 79 µM (inactive).

As to `CCn1c(SCC(=O)N/N=C/c2ccc(O)c(OC)c2)nc2ccccc21`, the IC50 in [2] was 20.4 µM (active).

For `COc1ccc(-n2c(/C=C/c3ccc(O)cc3)nc3ccccc3c2=O)cc1`, in assay [1], the IC50 was > 79 µM (inactive).

Consider `CCOc1cc(C(c2c(C)n[nH]c2O)c2c(C)n[nH]c2O)ccc1OC(=O)c1cccc([N+](=O)[O-])c1`, for which, in [2], the IC50 is > 100 µM (active). For the same molecule, in assay [7], the AC50 (in general, the concentration giving half of the maximal activity seen) was 0.365 µM (active). Moreover, the EC50 in assay [8] is 0.205 µM (active).

As to `O=C(COC(=O)CCc1nc(O)c2ccccc2n1)Nc1ccc2c(c1)OCO2`, the IC50 in [1] is > 79 µM (inactive).

With `CCCc1cc(N2CCN(C(=O)c3ccco3)CC2)n2c(nc3ccccc32)c1C#N`, the IC50 in assay [1] is > 79 µM (inactive).

Turning to `O=C(CCc1nc(O)c2ccccc2n1)N1CCN(S(=O)(=O)c2cccc(F)c2)CC1`, the IC50 in [1] was > 79 µM (inactive).

Consider `Cc1ccc2ccc(C(Nc3ccccn3)c3ccccc3)c(O)c2n1` (stereo unspecified), for which the EC50 in assay [3] was 1.52 µM (active); in assay [4], > 150 µM (not active); in assay [5], 63.5 µM (active).

Turning to `Cc1csc2nc(COC(=O)c3ccc(Cl)c([N+](=O)[O-])c3)cc(=O)n12`, the IC50 in assay [1] is > 79 µM (inactive).

`Nc1ccc(NC(=O)NC2CCCCC2)cc1`: the IC50 in assay [2] was 10.5 µM (active).

`O=C(O)c1cccc(N/N=C/c2cccc3ccccc23)c1`: the EC50 in [9] is 4.51 µM (active); in assay [10], 1.5 µM (active).

As for `COCCCN1C(=O)/C(=C/c2ccc(CNS(=O)(=O)c3ccccc3)o2)C(C(=O)OC)=C1C`, the EC50 in [3] is 28.9 µM (active); in assay [4] it was > 150 µM (not active); in [5], > 150 µM (not active).

For the molecule `CCn1cc(C(=O)NC(=S)Nc2ccccc2Br)cn1`, the EC50 in [3], in assay [4] and in assay [5] was > 150 µM (not active) throughout.

For the molecule `COc1ccc(OC)c(CCNC(=O)C(=O)Nc2ccc3nc4n(c(=O)c3c2)CCCCC4)c1`, the EC50 in [3] was 4.97 µM (active); in assay [4] it was 16.6 µM (active); in assay [5], 18.3 µM (active).

With `COc1cccc(-c2cc3nc(C)c(C)c(N4CCN(C(=O)c5ccoc5)CC4)n3n2)c1`, the IC50 in [1] was > 79 µM (inactive).

For `O=C(NNC(=S)NC(=O)c1ccccc1)c1ccc(O)cc1`, the EC50 in assay [3] was 4.64 µM (active); in assay [4], > 150 µM (not active); in [5] it was 52.4 µM (inconclusive).

Take `Cc1ccccc1OCC(=O)NNC(=O)Cn1[nH]c(=O)c2ccccc2c1=O`: in assay [1], the IC50 is > 79 µM (inactive).

Values taken from ChEMBL document CHEMBL1201862, “PubChem BioAssay data set” (2004).
